# Patent publication US11578056B2, “Solid forms comprising (S)-2-(2,6-dioxopiperidin-3-yl)-4-((2-fluoro-4-((3-morpholinoazetidin-1-yl)methyl)benzyl)amino)isoindoline-1,3-dione and salts thereof, and compositions comprising and methods of using the same” (Celgene Corporation, priority 2019, dated 2023)
# Columns and labels:
# Type in all cases: physicochemical
# [1] = Dynamic vapor sorption (DVS) hygroscopicity
# Experimental: Dynamic vapor sorption (DVS) was measured using DVS advantage (Surface Measurement Systems Ltd). The samples were tested under isotherm (25° C.) at a targeted RH of 0 to 95% full cycle in step mode. For an isotherm test, the chamber temperature is maintained by a water bath at constant 25.0±1.0° C. The relative humidity in the sample chamber is generated by combining different flows of wet and dry nitrogen with variable flow rates. The analysis was performed in 10% RH increments. Sampling rate is 1 sec save data rate is 20 sec. The dm/dt (%) value was set at 0.001 with a dm/dt window of 5 min., a minimum stability duration time of 10 min, and a maximum stage time of 180 min. The sample's equilibrium weight corresponding to each RH was recorded. A sorption isotherm is obtained by plotting equilibrium moisture content versus RH.
# [2] = Shear sensitivity (compression, XRPD); details: compressed under 700 and 1100 lbs for 1 minute
# Experimental: Shear Sensitivity: Form A of a hydrochloride salt of Compound 1 was compressed under 700 and 1100 lbs for 1 minute and analyzed by XRPD.
# [3] = Solid state stability, Accelerated Stability Assessment Program (ASAP)
# Experimental: (§1) Solid State Stability: Solid state stability of Form A of a hydrochloride salt of Compound 1 was evaluated using Accelerated Stability Assessment Program (ASAP). Forced degradation storage conditions were used between 60-80° C. and 0-80% RH for up to 2 weeks. A photostress study under 2 times ICH conditions was also conducted in the solid state. The solid samples were analyzed for both chemical and chiral stability. At the end of the study, the crystalline form of the compound was verified by XRPD.
# [4] = Solid state photostress study under 2 times ICH conditions
# Experimental: as §1
# [5] = Long term solid state stability (double LDPE bags in HDPE container)
# Experimental: Long Term Solid State Stability: Form A of a hydrochloride salt of Compound 1 (packaged in double LDPE bags in HDPE container) was stored up to 3 months at 25° C./60% RH, 30° C./65% RH, and 40° C./75% RH storage conditions. […] Therefore, a re-test period of 12 months is proposed when stored at or below 25° C.
structure (smiles),measurement,setting,value
Cl.O=C1CC[C@H](N2C(=O)c3cccc(NCc4ccc(CN5CC(N6CCOCC6)C5)cc4F)c3C2=O)C(=O)N1,solid form after DVS,[1]; after DVS,remained as Form A
same,hygroscopicity (DVS),[1]; below 90% RH,moderate hygroscopic
same,water uptake expressed as moles of water (DVS),[1]; corresponding to the about 3.0% w/w uptake,about 1 mole
same,sorption/desorption reversibility (DVS),[1]; during two full cycles,almost reversible
same,moisture picked up (DVS),[1]; from dry up to 90% RH,~2.9 % wt
same,mass increase (DVS),[1]; increase in RH from about 0% to about 95%,about 3.0%
same,water uptake (DVS),"[1]; sorption at all humidities, FIG. 7",about 3.0 % w/w
same,solid form after compression (XRPD),[2],remained the same
same,changes in assay,"[3]; 60-80° C., 0-80% RH, up to 2 weeks, except 80° C./0% RH after 1 week and 2 weeks",< 5%
same,LC Purity (%),"[3]; 60° C., 50% RH, 7 days",98.51%
same,R-isomer % area,"[3]; 60° C., 50% RH, 7 days",1.26 % area
same,LC Purity (%),"[3]; 60° C., 50% RH, 14 days",98.47%
same,R-isomer % area,"[3]; 60° C., 50% RH, 14 days",1.28 % area
same,LC Purity (%),"[3]; 70° C., 20% RH, 7 days",98.28%
same,R-isomer % area,"[3]; 70° C., 20% RH, 7 days",1.26 % area
same,LC Purity (%),"[3]; 70° C., 20% RH, 14 days",98.50%
same,R-isomer % area,"[3]; 70° C., 20% RH, 14 days",1.26 % area
same,LC Purity (%),"[3]; 70° C., 75% RH, 7 days",98.48%
same,R-isomer % area,"[3]; 70° C., 75% RH, 7 days",1.34 % area
same,LC Purity (%),"[3]; 70° C., 75% RH, 14 days",98.24%
same,R-isomer % area,"[3]; 70° C., 75% RH, 14 days",1.49 % area
same,LC Purity (%),"[3]; 80° C., 0% RH, 7 days",91.18%
same,R-isomer % area,"[3]; 80° C., 0% RH, 7 days",1.77 % area
same,LC Purity (%),"[3]; 80° C., 0% RH, 14 days",86.98%
same,R-isomer % area,"[3]; 80° C., 0% RH, 14 days",1.28 % area
same,LC Purity (%),"[3]; 80° C., 40% RH, 7 days",98.32%
same,R-isomer % area,"[3]; 80° C., 40% RH, 7 days",1.77 % area
same,LC Purity (%),"[3]; 80° C., 40% RH, 14 days",98.29%
same,R-isomer % area,"[3]; 80° C., 40% RH, 14 days",1.30 % area
same,LC Purity (%),"[3]; 80° C., 70% RH, 7 days",98.43%
same,R-isomer % area,"[3]; 80° C., 70% RH, 7 days",1.36 % area
same,LC Purity (%),"[3]; 80° C., 70% RH, 14 days",98.21%
same,R-isomer % area,"[3]; 80° C., 70% RH, 14 days",1.45 % area
same,change of crystalline form (XRPD),[3]; 80° C./70% RH after 10 days vs control,No change of crystalline form
same,ASAP stability conclusion,[3]; ASAP stability results,can be considered stable
same,LC Purity (%),[3]; Heat/Humidity Control,98.44%
same,R-isomer % area,[3]; Heat/Humidity Control,1.26 % area
same,maximum change in chiral purity,"[3]; across all conditions, maximum under high humidity conditions",≤ 0.2%
same,LC Purity (%),[4]; 2x ICH Photo Stressed,94.80%
same,R-isomer % area,[4]; 2x ICH Photo Stressed,1.17 % area
same,LC Purity (%),[4]; Photo Stressed Control,98.45%
same,R-isomer % area,[4]; Photo Stressed Control,1.27 % area
same,changes in assay,"[4]; photostability conditions (2 times ICH), solid state",< 4%
same,Appearance (Yellow powder),"[5]; 25° C./60% RH, 0 Month",Conforms
same,Chiral Purity (%),"[5]; 25° C./60% RH, 0 Month",96.0%
same,Chromatographic Purity (%),"[5]; 25° C./60% RH, 0 Month",98.6%
same,"Solid forms (XRPD), consistent with Form A","[5]; 25° C./60% RH, 0 Month",Conforms
same,Total Related Impurities (%),"[5]; 25° C./60% RH, 0 Month",1.41%
same,Water (%),"[5]; 25° C./60% RH, 0 Month",1.4%
same,Appearance (Yellow powder),"[5]; 25° C./60% RH, 1 Month",Conforms
same,Chiral Purity (%),"[5]; 25° C./60% RH, 1 Month",95.7%
same,Chromatographic Purity (%),"[5]; 25° C./60% RH, 1 Month",98.5%
same,"Solid forms (XRPD), consistent with Form A","[5]; 25° C./60% RH, 1 Month",Conforms
same,Total Related Impurities (%),"[5]; 25° C./60% RH, 1 Month",1.50%
same,Water (%),"[5]; 25° C./60% RH, 1 Month",1.7%
same,Appearance (Yellow powder),"[5]; 25° C./60% RH, 3 Month",Conforms
same,Chiral Purity (%),"[5]; 25° C./60% RH, 3 Month",95.7%
same,Chromatographic Purity (%),"[5]; 25° C./60% RH, 3 Month",98.5%
same,"Solid forms (XRPD), consistent with Form A","[5]; 25° C./60% RH, 3 Month",Conforms
same,Total Related Impurities (%),"[5]; 25° C./60% RH, 3 Month",1.55%
same,Water (%),"[5]; 25° C./60% RH, 3 Month",1.9%
same,long term solid state stability,"[5]; 25° C./60% RH, 30° C./65% RH and 40° C./75% RH for 3 months, double LDPE bags in HDPE container",demonstrate stability
same,Appearance (Yellow powder),"[5]; 30° C./65% RH, 0 Month",Conforms
same,Chiral Purity (%),"[5]; 30° C./65% RH, 0 Month",96.0%
same,Chromatographic Purity (%),"[5]; 30° C./65% RH, 0 Month",98.6%
same,Total Related Impurities (%),"[5]; 30° C./65% RH, 0 Month",1.41%
same,Water (%),"[5]; 30° C./65% RH, 0 Month",1.4%
same,Appearance (Yellow powder),"[5]; 30° C./65% RH, 1 Month",Conforms
same,Chiral Purity (%),"[5]; 30° C./65% RH, 1 Month",94.5%
same,Chromatographic Purity (%),"[5]; 30° C./65% RH, 1 Month",98.4%
same,Total Related Impurities (%),"[5]; 30° C./65% RH, 1 Month",1.56%
same,Water (%),"[5]; 30° C./65% RH, 1 Month",1.9%
same,Appearance (Yellow powder),"[5]; 30° C./65% RH, 3 Month",Conforms
same,Chiral Purity (%),"[5]; 30° C./65% RH, 3 Month",95.8%
same,Chromatographic Purity (%),"[5]; 30° C./65% RH, 3 Month",98.4%
same,Total Related Impurities (%),"[5]; 30° C./65% RH, 3 Month",1.63%
same,Water (%),"[5]; 30° C./65% RH, 3 Month",2.0%
same,Appearance (Yellow powder),"[5]; 40° C./75% RH, 0 Month",Conforms
same,Chiral Purity (%),"[5]; 40° C./75% RH, 0 Month",96.0%
same,Chromatographic Purity (%),"[5]; 40° C./75% RH, 0 Month",98.6%
same,"Solid forms (XRPD), consistent with Form A","[5]; 40° C./75% RH, 0 Month",Conforms
same,Total Related Impurities (%),"[5]; 40° C./75% RH, 0 Month",1.41%
same,Water (%),"[5]; 40° C./75% RH, 0 Month",1.4%
same,Appearance (Yellow powder),"[5]; 40° C./75% RH, 1 Month",Conforms
same,Chiral Purity (%),"[5]; 40° C./75% RH, 1 Month",96.0%
same,Chromatographic Purity (%),"[5]; 40° C./75% RH, 1 Month",98.5%
same,"Solid forms (XRPD), consistent with Form A","[5]; 40° C./75% RH, 1 Month",Conforms
same,Total Related Impurities (%),"[5]; 40° C./75% RH, 1 Month",1.52%
same,Water (%),"[5]; 40° C./75% RH, 1 Month",1.8%
same,Appearance (Yellow powder),"[5]; 40° C./75% RH, 3 Month",Conforms
same,Chiral Purity (%),"[5]; 40° C./75% RH, 3 Month",96.1%
same,Chromatographic Purity (%),"[5]; 40° C./75% RH, 3 Month",98.4%
same,"Solid forms (XRPD), consistent with Form A","[5]; 40° C./75% RH, 3 Month",Conforms
same,Total Related Impurities (%),"[5]; 40° C./75% RH, 3 Month",1.60%
same,Water (%),"[5]; 40° C./75% RH, 3 Month",2.0%
same,proposed re-test period,[5]; when stored at or below 25° C.,12 months
